PubChem BioAssay (NCI)
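Briefly, cells in 96-well plates were exposed to five compound concentrations for 48 h, and endpoints were estimated by linear interpolation. TGI: concentration producing complete growth inhibition.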

Columns and labels:
Experiment in all cases: NCI tumour cell line growth inhibition, 48 h
RPMI-8226 leukemia = system: RPMI-8226 leukemia
DLD-1 colon = system: DLD-1 colon
ACHN renal = system: ACHN renal
CCRF-CEM leukemia = system: CCRF-CEM leukemia
SNB-19 CNS = system: SNB-19 CNS
HCC-2998 colon = system: HCC-2998 colon
SNB-75 CNS = system: SNB-75 CNS
OVCAR-4 ovarian = system: OVCAR-4 ovarian
HOP-62 NSCLC = system: HOP-62 NSCLC
K-562 leukemia = system: K-562 leukemia
HOP-92 NSCLC = system: HOP-92 NSCLC
HCT-116 colon = system: HCT-116 colon
U251 CNS = system: U251 CNS
LOX IMVI melanoma = system: LOX IMVI melanoma
UACC-257 melanoma = system: UACC-257 melanoma
NCI-H522 lung = system: NCI-H522 lung
SK-MEL-2 melanoma = system: SK-MEL-2 melanoma
XF 498 CNS = system: XF 498 CNS
786-0 renal = system: 786-0 renal
SK-OV-3 ovarian = system: SK-OV-3 ovarian
SF-539 CNS = system: SF-539 CNS
NCI-H460 lung = system: NCI-H460 lung
HCT-15 colon = system: HCT-15 colon
MALME-3M melanoma = system: MALME-3M melanoma
SN12C renal = system: SN12C renal
LXFL 529 NSCLC = system: LXFL 529 NSCLC
COLO 205 colon = system: COLO 205 colon
KM12 colon = system: KM12 colon
DMS 114 small cell lung = system: DMS 114 small cell lung
SW-620 colon = system: SW-620 colon
HL-60(TB) leukemia = system: HL-60(TB) leukemia
SF-268 CNS = system: SF-268 CNS
IGROV1 ovarian = system: IGROV1 ovarian
HT29 colon = system: HT29 colon
OVCAR-3 ovarian = system: OVCAR-3 ovarian
A498 renal = system: A498 renal
NCI-H23 lung = system: NCI-H23 lung
OVCAR-8 ovarian = system: OVCAR-8 ovarian
MOLT-4 leukemia = system: MOLT-4 leukemia
SK-MEL-5 melanoma = system: SK-MEL-5 melanoma
UO-31 renal = system: UO-31 renal
HOP-18 NSCLC = system: HOP-18 NSCLC
EKVX NSCLC = system: EKVX NSCLC
OVCAR-5 ovarian = system: OVCAR-5 ovarian
NCI-H226 lung = system: NCI-H226 lung
SF-295 CNS = system: SF-295 CNS
RXF-631 renal = system: RXF-631 renal
RXF 393 renal = system: RXF 393 renal
SK-MEL-28 melanoma = system: SK-MEL-28 melanoma
SNB-78 CNS = system: SNB-78 CNS
A549 NSCLC = system: A549 NSCLC
M19-MEL melanoma = system: M19-MEL melanoma
KM20L2 colon = system: KM20L2 colon
M14 melanoma = system: M14 melanoma
UACC-62 melanoma = system: UACC-62 melanoma
CAKI-1 renal = system: CAKI-1 renal
SR leukemia = system: SR leukemia
TK-10 renal = system: TK-10 renal
DMS 273 small cell lung = system: DMS 273 small cell lung

Compound: O=c1c2cc([N+](=O)[O-])ccc2sc2ccsc12
- TGI (RPMI-8226 leukemia): > 100 µM
- TGI (DLD-1 colon): > 100 µM
- TGI (ACHN renal): > 100 µM
- TGI (CCRF-CEM leukemia): > 100 µM
- TGI (SNB-19 CNS): > 100 µM
- TGI (HCC-2998 colon): > 100 µM
- TGI (SNB-75 CNS): > 100 µM
- TGI (OVCAR-4 ovarian): > 100 µM
- TGI (HOP-62 NSCLC): > 100 µM
- TGI (K-562 leukemia): > 100 µM
- TGI (HOP-92 NSCLC): > 100 µM
- TGI (HCT-116 colon): > 100 µM
- TGI (U251 CNS): > 100 µM
- TGI (LOX IMVI melanoma): > 100 µM
- TGI (UACC-257 melanoma): > 100 µM
- TGI (NCI-H522 lung): > 100 µM
- TGI (SK-MEL-2 melanoma): > 100 µM
- TGI (XF 498 CNS): > 100 µM
- TGI (786-0 renal): > 100 µM
- TGI (SK-OV-3 ovarian): > 100 µM
- TGI (SF-539 CNS): > 100 µM
- TGI (NCI-H460 lung): > 100 µM
- TGI (HCT-15 colon): > 100 µM
- TGI (MALME-3M melanoma): > 100 µM
- TGI (SN12C renal): > 100 µM
- TGI (LXFL 529 NSCLC): > 100 µM
- TGI (COLO 205 colon): > 100 µM
- TGI (KM12 colon): > 100 µM
- TGI (DMS 114 small cell lung): > 100 µM
- TGI (SW-620 colon): > 100 µM
- TGI (HL-60(TB) leukemia): > 100 µM
- TGI (SF-268 CNS): > 100 µM
- TGI (IGROV1 ovarian): > 100 µM
- TGI (HT29 colon): > 100 µM
- TGI (OVCAR-3 ovarian): > 100 µM
- TGI (A498 renal): > 100 µM
- TGI (NCI-H23 lung): > 100 µM
- TGI (OVCAR-8 ovarian): > 100 µM
- TGI (MOLT-4 leukemia): > 100 µM
- TGI (SK-MEL-5 melanoma): > 100 µM
- TGI (UO-31 renal): > 100 µM
- TGI (HOP-18 NSCLC): > 100 µM
- TGI (EKVX NSCLC): > 100 µM
- TGI (OVCAR-5 ovarian): > 100 µM
- TGI (NCI-H226 lung): > 100 µM
- TGI (SF-295 CNS): > 100 µM
- TGI (RXF-631 renal): > 100 µM
- TGI (RXF 393 renal): > 100 µM
- TGI (SK-MEL-28 melanoma): > 100 µM
- TGI (SNB-78 CNS): > 100 µM
- TGI (A549 NSCLC): > 100 µM
- TGI (M19-MEL melanoma): > 100 µM
- TGI (KM20L2 colon): > 100 µM
- TGI (M14 melanoma): > 100 µM
- TGI (UACC-62 melanoma): > 100 µM

Compound: CC(C)C(=O)NC(=S)Nc1ccc([N+](=O)[O-])cc1C#N
- TGI (RPMI-8226 leukemia): > 100 µM
- TGI (DLD-1 colon): > 100 µM
- TGI (ACHN renal): > 100 µM
- TGI (CCRF-CEM leukemia): > 100 µM
- TGI (SNB-19 CNS): > 100 µM
- TGI (HCC-2998 colon): > 100 µM
- TGI (SNB-75 CNS): > 100 µM
- TGI (OVCAR-4 ovarian): > 100 µM
- TGI (HOP-62 NSCLC): > 100 µM
- TGI (K-562 leukemia): > 100 µM
- TGI (HOP-92 NSCLC): > 100 µM
- TGI (HCT-116 colon): > 100 µM
- TGI (U251 CNS): > 100 µM
- TGI (LOX IMVI melanoma): > 100 µM
- TGI (UACC-257 melanoma): > 100 µM
- TGI (NCI-H522 lung): > 100 µM
- TGI (SK-MEL-2 melanoma): > 100 µM
- TGI (XF 498 CNS): > 100 µM
- TGI (786-0 renal): > 100 µM
- TGI (SK-OV-3 ovarian): > 100 µM
- TGI (SF-539 CNS): > 100 µM
- TGI (NCI-H460 lung): > 100 µM
- TGI (HCT-15 colon): > 100 µM
- TGI (MALME-3M melanoma): > 100 µM
- TGI (SN12C renal): > 100 µM
- TGI (LXFL 529 NSCLC): > 100 µM
- TGI (COLO 205 colon): 52.7 µM
- TGI (KM12 colon): > 100 µM
- TGI (DMS 114 small cell lung): > 100 µM
- TGI (SW-620 colon): > 100 µM
- TGI (HL-60(TB) leukemia): > 100 µM
- TGI (SF-268 CNS): > 100 µM
- TGI (IGROV1 ovarian): > 100 µM
- TGI (HT29 colon): > 100 µM
- TGI (OVCAR-3 ovarian): > 100 µM
- TGI (A498 renal): > 100 µM
- TGI (NCI-H23 lung): > 100 µM
- TGI (OVCAR-8 ovarian): > 100 µM
- TGI (MOLT-4 leukemia): > 100 µM
- TGI (SK-MEL-5 melanoma): > 100 µM
- TGI (UO-31 renal): > 100 µM
- TGI (HOP-18 NSCLC): > 100 µM
- TGI (EKVX NSCLC): > 100 µM
- TGI (OVCAR-5 ovarian): > 100 µM
- TGI (NCI-H226 lung): > 100 µM
- TGI (SF-295 CNS): > 100 µM
- TGI (RXF-631 renal): > 100 µM
- TGI (RXF 393 renal): > 100 µM
- TGI (SK-MEL-28 melanoma): > 100 µM
- TGI (SNB-78 CNS): > 100 µM
- TGI (A549 NSCLC): > 100 µM
- TGI (M19-MEL melanoma): > 100 µM
- TGI (KM20L2 colon): > 100 µM
- TGI (CAKI-1 renal): > 100 µM
- TGI (SR leukemia): > 100 µM
- TGI (M14 melanoma): > 100 µM
- TGI (TK-10 renal): > 100 µM
- TGI (DMS 273 small cell lung): > 100 µM
- TGI (UACC-62 melanoma): > 100 µM
